Measured values from patent US9149038B2, “4-amino-6-(heterocyclic)picolinates and 6-amino-2-(heterocyclic)pyrimidine-4-carboxylates and their use as herbicides” (Dow AgroSciences LLC, priority 2013, dated 2015).
Read-outs that look alike come from different tables or passages of the source.

What was measured:
Type in all cases: in vivo
[1] = system: Key Broadleaf Weed and Crop Species; experiment: Post-Emergent Test II: postemergent herbicidal activity, visual rating after 14 d (Table 7); conditions: post-emergence, 336 h; for pest or weed control at 35 g/ha: 35 g ai/ha; for pest or weed control at 70 g/ha: 70 g ai/ha; for pest or weed control at 140 g/ha: 140 g ai/ha
Method in brief: (§1)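 Scoring is visual, 0-100, at 14 d after application, comparing treated with untreated plants. Application: overhead track spray at 187 L/ha onto seedlings at 1-2 true leaves, in surfactant/crop-oil carrier.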

[2] = system: Key Grass and Sedge Weeds as well as Grass Crops; experiment: Post-Emergent Test II: postemergent herbicidal activity, visual rating after 14 d (Table 8); conditions: post-emergence, 336 h; for pest or weed control at 35 g/ha: 35 g ai/ha; for pest or weed control at 70 g/ha: 70 g ai/ha; for pest or weed control at 140 g/ha: 140 g ai/ha
Method in brief: as §1

[3] = system: Key Broadleaf and Grass Weed as well as Crop Species; experiment: Post-Emergent Test I: postemergent herbicidal activity, visual phytotoxicity rating 10 days after treatment (Table 5); conditions: 4 kg ai/ha; for Visual Growth Reduction (%) 10 Days After Application ECHCG: barnyardgrass (Echinochloa crus-galli); for pest or weed control at 4000 g/ha: post-emergence, 240 h, 10 days after application
Protocol: Herbicidal evaluations were made visually on a scale of 0 to 100 where 0 represents no activity and 100 represents complete plant death. Post-Emergent Test I: Seeds of test species were obtained from commercial suppliers and planted into a 5″-round pot containing soil-less media mix (Metro-Mix 360®, Sun Gro Horticulture). Postemergence treatments were planted 8-12 days (d) prior to application and cultured in a greenhouse equipped with supplemental light sources to provide a 16 h photoperiod at 24-29° C. All pots were surface irrigated. Approximately 10 milligrams (mg) of each compound were dissolved in 1.3 mL acetone-DMSO (97:3, volume per volume (v/v)) and diluted with 4.1 mL water-isopropanol-crop oil concentrate (78:20:2, v/v/v) containing 0.02% Triton X-155. Treatments were serial diluted with the above formulation solvent to provide 1.85, 0.926, 0.462 and 0.231 milligrams per milliliter (mg/mL) of test compound delivered in 2.7 mL/pot (roughly equivalent to 4.0, 2.0, 1.0, and 0.5 kg/ha, respectively). Formulated compounds were applied using a DeVilbiss® compressed air sprayer at 2-4 pounds per square inch (psi). Following treatment, pots were returned to the greenhouse for the duration of the experiment. All pots were sub-irrigated as needed to provide optimum growing conditions. All pots were fertilized one time per week by subirrigating with Peters Peat-Lite Special® fertilizer (20-10-20). Phytotoxicity ratings were obtained 10 days after treatment postemergence applications. All evaluations were made visually on a scale of 0 to 100 where 0 represents no activity and 100 represents complete plant death and are presented as indicated in Table 4.

[4] = lambsquarters (Chenopodium album), read-out: Visual Growth Reduction (%) 14 Days After Application CHEAL
[5] = oilseed rape, canola (Brassica napus), read-out: Visual Growth Reduction (%) 14 Days After Application BRSNN
[6] = redroot pigweed (Amaranthus retroflexus), read-out: Visual Growth Reduction (%) 14 Days After Application AMARE
[7] = sunflower (Helianthus annuus), read-out: Visual Growth Reduction (%) 14 Days After Application HELAN
[8] = velvetleaf (Abutilon theophrasti), read-out: Visual Growth Reduction (%) 14 Days After Application ABUTH
[9] = wild poinsettia (Euphorbia heterophylla), read-out: Visual Growth Reduction (%) 14 Days After Application EPHHL
[10] = barnyardgrass (Echinochloa crus-galli), read-out: Visual Growth Reduction (%) 14 Days After Application ECHCG
[11] = giant foxtail (Setaria faberi), read-out: Visual Growth Reduction (%) 14 Days After Application SETFA
[12] = maize, corn (Zea mays), read-out: Visual Growth Reduction (%) 14 Days After Application ZEAMX
[13] = rice (Oryza sativa), read-out: Visual Growth Reduction (%) 14 Days After Application ORYSA
[14] = wheat, spring (Triticum aestivum), read-out: Visual Growth Reduction (%) 14 Days After Application TRZAS
[15] = yellow nutsedge (Cyperus esculentus), read-out: Visual Growth Reduction (%) 14 Days After Application CYPES
[16] = giant foxtail (Setaria faberi), read-out: Visual Growth Reduction (%) 10 Days After Application SETFA
[17] = ivyleaf morningglory (Ipomoea hederecea), read-out: Visual Growth Reduction (%) 10 Days After Application IPOHE
[18] = sunflower (Helianthus annuus), read-out: Visual Growth Reduction (%) 10 Days After Application HELAN
[19] = wild oats (Avena fatua), read-out: Visual Growth Reduction (%) 10 Days After Application AVEFA

SMILES: Nc1c(Cl)c(C(=O)O)nc(-c2cc3c(cc2F)OC(F)(F)O3)c1Cl [Compound 3]
- pest or weed control at 35 g/ha [1, 4]: 0 to 29%
- pest or weed control at 70 g/ha [1, 4]: 0 to 29%
- pest or weed control at 140 g/ha [1, 4]: 45 to 59%
- pest or weed control at 35 g/ha [1, 5]: 0 to 29%
- pest or weed control at 70 g/ha [1, 5]: 0 to 29%
- pest or weed control at 140 g/ha [1, 5]: 0 to 29%
- pest or weed control at 35 g/ha [1, 6]: 0 to 29%
- pest or weed control at 70 g/ha [1, 6]: 95 to 100%
- pest or weed control at 140 g/ha [1, 6]: 95 to 100%
- pest or weed control at 35 g/ha [1, 7]: 0 to 29%
- pest or weed control at 70 g/ha [1, 7]: 0 to 29%
- pest or weed control at 140 g/ha [1, 7]: 85 to 94%
- pest or weed control at 35 g/ha [1, 8]: 0 to 29%
- pest or weed control at 70 g/ha [1, 8]: 0 to 29%
- pest or weed control at 140 g/ha [1, 8]: 0 to 29%
- pest or weed control at 35 g/ha [1, 9]: 0 to 29%
- pest or weed control at 70 g/ha [1, 9]: 0 to 29%
- pest or weed control at 140 g/ha [1, 9]: 0 to 29%
- pest or weed control at 35 g/ha [2, 10]: 0 to 29%
- pest or weed control at 70 g/ha [2, 10]: 0 to 29%
- pest or weed control at 140 g/ha [2, 10]: 0 to 29%
- pest or weed control at 35 g/ha [2, 11]: 0 to 29%
- pest or weed control at 70 g/ha [2, 11]: 0 to 29%
- pest or weed control at 140 g/ha [2, 11]: 0 to 29%
- pest or weed control at 35 g/ha [2, 12]: 0 to 29%
- pest or weed control at 70 g/ha [2, 12]: 0 to 29%
- pest or weed control at 140 g/ha [2, 12]: 0 to 29%
- pest or weed control at 35 g/ha [2, 13]: 0 to 29%
- pest or weed control at 70 g/ha [2, 13]: 0 to 29%
- pest or weed control at 140 g/ha [2, 13]: 0 to 29%
- pest or weed control at 35 g/ha [2, 14]: 0 to 29%
- pest or weed control at 70 g/ha [2, 14]: 0 to 29%
- pest or weed control at 140 g/ha [2, 14]: 0 to 29%
- pest or weed control at 35 g/ha [2, 15]: 0 to 29%
- pest or weed control at 70 g/ha [2, 15]: 0 to 29%
- pest or weed control at 140 g/ha [2, 15]: 0 to 29%
- Visual Growth Reduction (%) 10 Days After Application ECHCG [3]: C (75-84)
- pest or weed control at 4000 g/ha [3, 16]: 75 to 84%
- pest or weed control at 4000 g/ha [3, 17]: 75 to 84%
- pest or weed control at 4000 g/ha [3, 18]: 75 to 84%
- pest or weed control at 4000 g/ha [3, 19]: 75 to 84%

SMILES: Nc1c(Cl)c(C(=O)O)nc(-c2ccc3c(c2F)OC(F)(F)O3)c1Cl [Compound 5]
- pest or weed control at 35 g/ha [1, 4]: 0 to 29%
- pest or weed control at 70 g/ha [1, 4]: 0 to 29%
- pest or weed control at 140 g/ha [1, 4]: 0 to 29%
- pest or weed control at 35 g/ha [1, 5]: 45 to 59%
- pest or weed control at 70 g/ha [1, 5]: 60 to 74%
- pest or weed control at 140 g/ha [1, 5]: 60 to 74%
- pest or weed control at 35 g/ha [1, 6]: 0 to 29%
- pest or weed control at 70 g/ha [1, 6]: 0 to 29%
- pest or weed control at 140 g/ha [1, 6]: 0 to 29%
- pest or weed control at 35 g/ha [1, 7]: 30 to 44%
- pest or weed control at 70 g/ha [1, 7]: 30 to 44%
- pest or weed control at 140 g/ha [1, 7]: 45 to 59%
- pest or weed control at 35 g/ha [1, 8]: 0 to 29%
- pest or weed control at 70 g/ha [1, 8]: 0 to 29%
- pest or weed control at 140 g/ha [1, 8]: 0 to 29%
- pest or weed control at 35 g/ha [1, 9]: 0 to 29%
- pest or weed control at 70 g/ha [1, 9]: 0 to 29%
- pest or weed control at 140 g/ha [1, 9]: 0 to 29%
- pest or weed control at 35 g/ha [2, 10]: 0 to 29%
- pest or weed control at 70 g/ha [2, 10]: 0 to 29%
- pest or weed control at 140 g/ha [2, 10]: 0 to 29%
- pest or weed control at 35 g/ha [2, 11]: 0 to 29%
- pest or weed control at 70 g/ha [2, 11]: 0 to 29%
- pest or weed control at 140 g/ha [2, 11]: 0 to 29%
- pest or weed control at 35 g/ha [2, 12]: 0 to 29%
- pest or weed control at 70 g/ha [2, 12]: 0 to 29%
- pest or weed control at 140 g/ha [2, 12]: 0 to 29%
- pest or weed control at 35 g/ha [2, 13]: 0 to 29%
- pest or weed control at 70 g/ha [2, 13]: 0 to 29%
- pest or weed control at 140 g/ha [2, 13]: 0 to 29%
- pest or weed control at 35 g/ha [2, 14]: 0 to 29%
- pest or weed control at 70 g/ha [2, 14]: 0 to 29%
- pest or weed control at 140 g/ha [2, 14]: 0 to 29%
- pest or weed control at 35 g/ha [2, 15]: 0 to 29%
- pest or weed control at 70 g/ha [2, 15]: 0 to 29%
- pest or weed control at 140 g/ha [2, 15]: 0 to 29%
- Visual Growth Reduction (%) 10 Days After Application ECHCG [3]: G (0-29)
- pest or weed control at 4000 g/ha [3, 16]: 75 to 84%
- pest or weed control at 4000 g/ha [3, 17]: 95 to 100%
- pest or weed control at 4000 g/ha [3, 18]: 95 to 100%
- pest or weed control at 4000 g/ha [3, 19]: 0 to 29%
